The record followed here is PMC6199744, “Development of Chemical Proteomics for the Folateome and Analysis of the Kinetoplastid Folateome” (ACS Infectious Diseases, 2018).

Where two headings read alike, the source gives them in different places.

Format in all cases: binding
In assay [1] the target is T1, HeLa cell extract proteins (Homo sapiens, UniProt P26447).
T1 construct: endogenous in cells; host or cells: HeLa cell extract

Assay [2] has as its target T2, HeLa cell extract proteins (Homo sapiens, UniProt P31949).
T2 construct: endogenous in cells; host or cells: HeLa cell extract
T2 sequence (P31949 1-105): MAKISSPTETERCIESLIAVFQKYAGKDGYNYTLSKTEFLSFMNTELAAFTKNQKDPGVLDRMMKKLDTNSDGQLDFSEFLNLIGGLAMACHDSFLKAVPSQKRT

Assay [3] deals with T3, HeLa cell extract proteins (Homo sapiens, UniProt P35573).
T3 construct: endogenous in cells; host or cells: HeLa cell extract

The target in assay [4] is T4, HeLa cell extract proteins (Homo sapiens, UniProt P51149).
T4 construct: endogenous in cells; host or cells: HeLa cell extract

Assay [5] has as its target T5, HeLa cell extract proteins (Homo sapiens, UniProt P53634).
T5 construct: endogenous in cells; host or cells: HeLa cell extract

The target in assay [6] is T6, HeLa cell extract proteins (Homo sapiens, UniProt P67775).
T6 construct: endogenous in cells; host or cells: HeLa cell extract

The target in assay [7] is T7, HeLa cell extract proteins (Homo sapiens, UniProt Q05048).
T7 construct: endogenous in cells; host or cells: HeLa cell extract
T7 sequence (Q05048 1-431): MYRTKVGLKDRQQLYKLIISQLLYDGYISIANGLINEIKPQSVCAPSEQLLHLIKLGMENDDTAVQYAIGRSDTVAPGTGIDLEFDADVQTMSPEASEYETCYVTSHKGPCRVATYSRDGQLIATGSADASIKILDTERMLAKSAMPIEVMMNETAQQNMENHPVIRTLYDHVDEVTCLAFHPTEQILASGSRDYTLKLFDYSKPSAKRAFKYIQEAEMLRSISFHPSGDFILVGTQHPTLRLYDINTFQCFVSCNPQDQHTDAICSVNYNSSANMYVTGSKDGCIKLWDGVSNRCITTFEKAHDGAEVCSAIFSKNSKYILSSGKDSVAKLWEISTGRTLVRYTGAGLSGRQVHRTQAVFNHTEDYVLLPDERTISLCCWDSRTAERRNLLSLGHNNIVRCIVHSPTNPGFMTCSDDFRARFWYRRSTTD

Assay [8] addresses T8, HeLa cell extract proteins (Homo sapiens, UniProt Q08209).
T8 construct: endogenous in cells; host or cells: HeLa cell extract

In assay [9] the target is T9, HeLa cell extract proteins (Homo sapiens, UniProt Q7RTS9).
T9 construct: endogenous in cells; host or cells: HeLa cell extract
T9 sequence (Q7RTS9 1-669): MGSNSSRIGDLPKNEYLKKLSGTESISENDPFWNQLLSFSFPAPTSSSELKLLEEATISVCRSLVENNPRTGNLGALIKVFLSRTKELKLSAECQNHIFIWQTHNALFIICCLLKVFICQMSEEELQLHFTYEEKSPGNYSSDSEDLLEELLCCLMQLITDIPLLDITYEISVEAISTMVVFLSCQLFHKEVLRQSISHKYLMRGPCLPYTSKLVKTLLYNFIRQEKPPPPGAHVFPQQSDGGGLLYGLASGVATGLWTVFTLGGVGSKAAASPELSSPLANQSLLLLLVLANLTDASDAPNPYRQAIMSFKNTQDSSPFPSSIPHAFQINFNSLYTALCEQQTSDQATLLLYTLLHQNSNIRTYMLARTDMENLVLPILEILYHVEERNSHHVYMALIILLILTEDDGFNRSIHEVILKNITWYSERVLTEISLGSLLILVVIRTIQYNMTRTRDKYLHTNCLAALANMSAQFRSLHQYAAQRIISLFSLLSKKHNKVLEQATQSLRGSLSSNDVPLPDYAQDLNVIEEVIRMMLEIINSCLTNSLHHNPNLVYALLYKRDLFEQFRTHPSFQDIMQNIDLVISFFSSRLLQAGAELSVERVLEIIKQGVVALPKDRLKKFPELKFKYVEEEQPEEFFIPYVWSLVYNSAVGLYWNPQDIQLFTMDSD

Assay [10] addresses T10, HeLa cell extract proteins (Homo sapiens, UniProt Q8TEX9).
T10 construct: endogenous in cells; host or cells: HeLa cell extract
T10 sequence (Q8TEX9 1-1081): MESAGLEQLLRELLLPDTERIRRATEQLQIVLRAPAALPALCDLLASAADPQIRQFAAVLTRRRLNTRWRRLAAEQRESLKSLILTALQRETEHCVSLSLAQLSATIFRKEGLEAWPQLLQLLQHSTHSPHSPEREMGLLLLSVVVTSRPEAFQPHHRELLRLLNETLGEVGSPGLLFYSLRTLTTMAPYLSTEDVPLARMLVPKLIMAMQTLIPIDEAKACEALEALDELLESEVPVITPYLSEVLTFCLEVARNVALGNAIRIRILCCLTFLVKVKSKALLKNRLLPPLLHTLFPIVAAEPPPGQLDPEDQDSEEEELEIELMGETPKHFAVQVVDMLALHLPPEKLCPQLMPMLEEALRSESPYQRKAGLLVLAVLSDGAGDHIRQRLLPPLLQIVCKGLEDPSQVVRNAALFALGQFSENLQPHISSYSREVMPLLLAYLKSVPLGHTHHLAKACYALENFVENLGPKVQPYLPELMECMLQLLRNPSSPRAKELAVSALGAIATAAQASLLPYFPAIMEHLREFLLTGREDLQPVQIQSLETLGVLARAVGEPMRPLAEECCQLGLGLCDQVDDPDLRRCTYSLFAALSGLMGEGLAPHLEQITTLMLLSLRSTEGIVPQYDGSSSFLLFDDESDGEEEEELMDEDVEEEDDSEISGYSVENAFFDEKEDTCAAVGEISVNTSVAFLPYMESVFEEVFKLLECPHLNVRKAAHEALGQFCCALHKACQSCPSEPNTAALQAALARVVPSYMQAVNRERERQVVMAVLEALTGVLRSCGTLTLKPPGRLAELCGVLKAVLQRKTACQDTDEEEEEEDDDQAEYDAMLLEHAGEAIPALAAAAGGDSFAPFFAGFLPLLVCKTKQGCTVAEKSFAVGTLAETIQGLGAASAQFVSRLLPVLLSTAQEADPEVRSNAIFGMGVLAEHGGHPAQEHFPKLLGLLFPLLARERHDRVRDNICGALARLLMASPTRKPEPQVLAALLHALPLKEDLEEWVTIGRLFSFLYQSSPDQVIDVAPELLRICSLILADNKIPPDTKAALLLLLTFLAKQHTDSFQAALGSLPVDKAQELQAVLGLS

In assay [11] the target is T11, HeLa cell extract proteins (Homo sapiens, UniProt Q9UH17).
T11 construct: endogenous in cells; host or cells: HeLa cell extract

Setting [12] is: HeLa, protein S100A11 (PROTEIN S100-A11.).
The mark [13] stands for this setting: HeLa, protein AGL (PUTATIVE UNCHA[…] AGL (FRAGMENT)).
Setting [14] is: HeLa, protein CTSC (DIPEPTIDYL-PEPTIDASE 1 PRECURSOR).

T3 sequence (P35573 whole entry): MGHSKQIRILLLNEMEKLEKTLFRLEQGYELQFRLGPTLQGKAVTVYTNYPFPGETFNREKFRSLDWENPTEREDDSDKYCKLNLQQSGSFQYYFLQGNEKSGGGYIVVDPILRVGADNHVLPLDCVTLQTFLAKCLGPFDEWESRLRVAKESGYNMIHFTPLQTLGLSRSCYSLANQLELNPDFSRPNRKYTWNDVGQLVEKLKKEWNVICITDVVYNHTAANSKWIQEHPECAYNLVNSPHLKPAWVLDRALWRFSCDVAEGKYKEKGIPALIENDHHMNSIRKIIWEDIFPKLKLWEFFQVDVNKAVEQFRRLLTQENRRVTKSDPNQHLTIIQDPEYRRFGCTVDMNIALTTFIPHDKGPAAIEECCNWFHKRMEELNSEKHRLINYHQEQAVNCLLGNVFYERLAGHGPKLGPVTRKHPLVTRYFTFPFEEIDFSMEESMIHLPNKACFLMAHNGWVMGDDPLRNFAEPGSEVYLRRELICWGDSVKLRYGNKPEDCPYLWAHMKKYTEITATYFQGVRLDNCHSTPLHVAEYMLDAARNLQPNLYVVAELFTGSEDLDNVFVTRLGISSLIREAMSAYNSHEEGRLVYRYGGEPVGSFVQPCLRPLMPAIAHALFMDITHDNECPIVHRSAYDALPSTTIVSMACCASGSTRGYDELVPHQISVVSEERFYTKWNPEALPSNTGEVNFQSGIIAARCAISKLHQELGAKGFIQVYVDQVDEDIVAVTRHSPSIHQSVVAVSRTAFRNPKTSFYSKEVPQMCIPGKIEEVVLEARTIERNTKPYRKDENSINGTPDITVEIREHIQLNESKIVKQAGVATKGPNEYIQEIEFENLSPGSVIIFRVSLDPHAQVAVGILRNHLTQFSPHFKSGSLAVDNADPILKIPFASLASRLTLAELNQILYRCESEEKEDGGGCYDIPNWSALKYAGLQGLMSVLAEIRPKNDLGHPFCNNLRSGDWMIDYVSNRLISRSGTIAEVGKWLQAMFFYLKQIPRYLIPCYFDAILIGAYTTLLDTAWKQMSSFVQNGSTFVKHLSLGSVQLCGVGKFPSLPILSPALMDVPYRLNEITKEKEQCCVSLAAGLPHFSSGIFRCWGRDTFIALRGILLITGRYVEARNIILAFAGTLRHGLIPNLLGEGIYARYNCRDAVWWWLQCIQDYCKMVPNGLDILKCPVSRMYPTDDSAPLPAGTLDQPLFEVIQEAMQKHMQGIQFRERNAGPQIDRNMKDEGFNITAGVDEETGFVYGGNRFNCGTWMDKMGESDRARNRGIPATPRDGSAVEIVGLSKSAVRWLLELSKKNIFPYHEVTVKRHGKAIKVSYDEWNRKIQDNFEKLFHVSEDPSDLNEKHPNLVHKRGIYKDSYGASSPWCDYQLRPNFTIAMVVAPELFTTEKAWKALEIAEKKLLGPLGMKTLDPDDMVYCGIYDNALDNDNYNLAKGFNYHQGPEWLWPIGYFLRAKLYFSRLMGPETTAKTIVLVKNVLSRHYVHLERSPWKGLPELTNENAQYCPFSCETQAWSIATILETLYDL
T5 sequence (P53634 25-463): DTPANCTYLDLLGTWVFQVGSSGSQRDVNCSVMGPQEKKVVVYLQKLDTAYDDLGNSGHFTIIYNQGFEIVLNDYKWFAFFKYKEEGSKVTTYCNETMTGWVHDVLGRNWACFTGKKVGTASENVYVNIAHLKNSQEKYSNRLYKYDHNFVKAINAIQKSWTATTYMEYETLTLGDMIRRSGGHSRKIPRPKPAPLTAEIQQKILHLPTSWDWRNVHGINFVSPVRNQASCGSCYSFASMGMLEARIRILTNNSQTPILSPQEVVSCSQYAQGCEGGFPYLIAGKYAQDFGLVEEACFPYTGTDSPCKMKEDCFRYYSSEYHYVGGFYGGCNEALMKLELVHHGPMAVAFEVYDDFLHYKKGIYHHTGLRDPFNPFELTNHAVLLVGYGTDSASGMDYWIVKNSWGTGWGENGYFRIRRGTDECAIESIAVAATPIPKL
T4 sequence (P51149 whole entry): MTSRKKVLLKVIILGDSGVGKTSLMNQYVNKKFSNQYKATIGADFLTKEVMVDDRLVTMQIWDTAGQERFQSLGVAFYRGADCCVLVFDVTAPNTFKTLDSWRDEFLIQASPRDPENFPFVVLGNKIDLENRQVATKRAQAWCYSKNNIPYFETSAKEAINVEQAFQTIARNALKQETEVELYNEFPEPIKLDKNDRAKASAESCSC
T6 sequence (P67775 whole entry): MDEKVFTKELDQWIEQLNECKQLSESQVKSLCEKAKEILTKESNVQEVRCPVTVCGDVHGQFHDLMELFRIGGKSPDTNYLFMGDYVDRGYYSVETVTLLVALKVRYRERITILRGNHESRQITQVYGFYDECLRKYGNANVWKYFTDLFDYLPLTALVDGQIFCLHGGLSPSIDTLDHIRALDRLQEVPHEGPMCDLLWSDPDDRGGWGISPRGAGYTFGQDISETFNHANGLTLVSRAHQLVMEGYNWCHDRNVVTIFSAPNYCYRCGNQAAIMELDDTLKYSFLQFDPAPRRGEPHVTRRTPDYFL
T1 sequence (P26447 whole entry): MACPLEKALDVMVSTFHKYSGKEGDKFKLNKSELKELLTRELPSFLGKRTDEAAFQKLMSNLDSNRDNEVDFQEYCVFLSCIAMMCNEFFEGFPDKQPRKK
T11 sequence (Q9UH17 whole entry): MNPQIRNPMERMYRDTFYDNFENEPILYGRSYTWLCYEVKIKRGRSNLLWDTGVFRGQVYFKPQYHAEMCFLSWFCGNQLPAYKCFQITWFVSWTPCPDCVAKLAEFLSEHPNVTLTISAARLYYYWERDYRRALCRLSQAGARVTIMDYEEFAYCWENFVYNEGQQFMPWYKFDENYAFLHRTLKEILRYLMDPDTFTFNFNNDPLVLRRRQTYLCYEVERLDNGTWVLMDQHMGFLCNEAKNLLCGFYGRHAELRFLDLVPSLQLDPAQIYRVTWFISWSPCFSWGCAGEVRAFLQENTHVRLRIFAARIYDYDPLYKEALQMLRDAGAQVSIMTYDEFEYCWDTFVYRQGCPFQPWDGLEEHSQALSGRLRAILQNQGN

For `Nc1nc2cccc(-c3ccccc3)c2n1Cc1ccc(Cl)c(Cl)c1` [compound 3], the “fold changes relative to vehicle control” value is given as 1.15 in assay [1] (protein S100A4, HeLa); 1.08 fold in assay [2] (setting [12]); 1.13 in assay [3] (HeLa, protein AGL); 1.12 in [4] (protein RAB7A, HeLa); 0.86 in assay [5] (protein CTSC, HeLa); 0.91 in assay [6] (HeLa, protein PPP2CA). Besides, the “fold changes relative to vehicle control” value in assay [7] (HeLa, protein CSTF1) came out at 0.98; in [8] (HeLa, protein PPP3CA) it was 1.03; in [9] (HeLa, protein DYM) it was 0.88; in assay [10] (captured protein IPO4, HeLa), 0.97; in assay [11] (HeLa, protein APOBEC3B), 1.01.
Take `NCCOCCOCC(=O)Nc1nc2ncc(CNc3ccc(C(=O)NC(CCC(=O)O)C(=O)O)cc3)nc2c(=O)[nH]1` (centres unmarked) [compound 6]: the “fold changes relative to vehicle control” value came out at 1.18 in assay [1] (protein S100A4, HeLa); 1.59 in assay [2] (HeLa, protein S100A11); 1.09 in assay [3] (setting [13]); 1.31 in [4] (protein RAB7A, HeLa); 0.82 in [5] (setting [14]); 0.91 in assay [6] (HeLa, captured protein PPP2CA). The “fold changes relative to vehicle control” value in [7] (HeLa, captured protein CSTF1) stood at 0.88; in assay [8] (HeLa, protein PPP3CA), 0.95; in assay [9] (HeLa, protein DYM) it was 0.86; in [10] (protein IPO4, HeLa) it was 1.04; in [11] (HeLa, protein APOBEC3B), 1.02.
In the case of `Nc1nc2[nH]cc(CCc3ccc(C(=O)N[C@@H](CCC(=O)O)C(=O)O)cc3)c2c(=O)[nH]1` [PTX, pemetrexed], the “fold changes relative to vehicle control” value in assay [1] is 0.99; in assay [2], 1.29; in [3], 1.1; in assay [4], 1.12; in assay [5] it was 0.84; in assay [6], 0.93. For the same compound, the “fold changes relative to vehicle control” value was 0.99 in assay [7]; 0.91 in assay [8]; 0.68 in assay [9]; 0.88 in assay [10]; 0.89 in assay [11].
For the compound `Nc1nc2c(c(=O)[nH]1)N(C=O)C(CNc1ccc(C(=O)N[C@@H](CCC(=O)O)C(=O)O)cc1)CN2` (some centres unmarked) [LEU, leucovorin], the “fold changes relative to vehicle control” value was 0.95 in assay [1] (protein S100A4, HeLa); 1.32 in assay [2] (HeLa, protein S100A11); 1.19 in assay [3] (setting [13]); 0.99 in assay [4] (protein RAB7A, HeLa); 1.03 in assay [5] (setting [14]); 0.95 in [6] (HeLa, captured protein PPP2CA). Moreover, the “fold changes relative to vehicle control” value turned out to be 1 in assay [7] (HeLa, captured protein CSTF1); 0.97 in [8] (HeLa, protein PPP3CA); 0.78 in assay [9] (HeLa, protein DYM); 0.89 in [10] (protein IPO4, HeLa); 0.93 in assay [11] (HeLa, protein APOBEC3B).
As to `CCCCCCOc1ccc(Cc2cnc(N)nc2N)cc1` [compound 1], the “fold changes relative to vehicle control” value in assay [1] (protein S100A4, HeLa) worked out at 0.83; in assay [2] (setting [12]), 1.66 fold; in assay [3] (HeLa, protein AGL) it was 1.05; in [4] (protein RAB7A, HeLa), 1.21; in assay [5] (protein CTSC, HeLa), 0.89; in assay [6] (HeLa, protein PPP2CA), 0.87. Moreover, the “fold changes relative to vehicle control” value in [7] (HeLa, protein CSTF1) is recorded as 1.05; in assay [8] (HeLa, protein PPP3CA), 1.1; in assay [9] (HeLa, protein DYM), 0.89; in assay [10] (captured protein IPO4, HeLa) it was 0.83; in [11] (HeLa, protein APOBEC3B), 0.92.
On to `NCCCNc1ccc(C(=O)NC(CCC(=O)O)C(=O)O)cc1` (centres unmarked) [compound 7], for which the “fold changes relative to vehicle control” value in assay [1] (protein S100A4, HeLa) is listed as 1.03; in assay [2] (HeLa, protein S100A11), 1.2; in [3] (setting [13]) it was 1.17; in assay [4] (protein RAB7A, HeLa), 1.05; in [5] (setting [14]), 0.97; in [6] (HeLa, captured protein PPP2CA) it was 0.97. For the same compound, the “fold changes relative to vehicle control” value is given as 1.02 in [7] (HeLa, captured protein CSTF1); 0.85 in [8] (HeLa, protein PPP3CA); 0.94 in assay [9] (HeLa, protein DYM); 0.94 in [10] (protein IPO4, HeLa); 0.94 in assay [11] (HeLa, protein APOBEC3B).
As for `CCCCCCOc1cccc(Cc2cnc(N)nc2N)c1` [compound 2], the “fold changes relative to vehicle control” value is given as 1.43 in assay [1] (protein S100A4, HeLa); 2.47 fold in [2] (setting [12]); 1.08 in [3] (HeLa, protein AGL); 1.58 in [4] (protein RAB7A, HeLa); 0.95 in assay [5] (protein CTSC, HeLa); 1.02 in [6] (HeLa, protein PPP2CA). The “fold changes relative to vehicle control” value in assay [7] (HeLa, protein CSTF1) is given as 0.99; in [8] (HeLa, protein PPP3CA), 1.13; in [9] (HeLa, protein DYM) it was 1.27; in assay [10] (captured protein IPO4, HeLa), 1.01; in assay [11] (HeLa, protein APOBEC3B), 1.25.
